Reference: patent US20250213569A1, “METHODS AND COMPOSITIONS FOR MEASURING AND INHIBITING EXONUCLEASE ACTIVITY” (priority 2020, published 2025)
Read-outs that look alike come from different tables or passages of the source.

Experiments:
unbound NSP10 = assay: FRET-based activity assay, non-specific background of unbound NSP10; format: biochemical; settings: dose-response, FIG. 11B
NSP14/10 complex = NSP14/10 complex (Severe acute respiratory syndrome coronavirus 2 (2019-nCoV) (SARS-CoV-2), UniProt P0DTD1); assay: Gel electrophoresis assay of Oligo B digestion; format: biochemical; settings: for NSP14/NSP10 complex inhibitory potential (gel): concentrations as in FIG. 55
A549 cells [1] = assay: AlamarBlue viability assay; settings: A549 human lung cells, 48 hours
[2] = target: SARS-CoV2 NSP14/NSP10 exonuclease (Severe acute respiratory syndrome coronavirus 2 (2019-nCoV) (SARS-CoV-2), UniProt P0DTD1); assay: biochemical; set-up: inhibition of NSP14/NSP10 complex exonuclease activity: dose or concentration left out as unconfirmed; settings: for Inhibitory activity present: class symbols − to +++++, key not given
[3] = Solubility issue (Table 2)
A549 cells [4] = system: A549 cells
HCoV-OC43 = HCoV-OC43 infection of HMC3 cells, combination with remdesivir; format: cell-based; settings: #112: 60 μM, #77: […] μM, #68: 25 μM
SARS-CoV2 = format: cell-based; settings: A549-ACE2 cells; #112: 60 μM, #77: […] μM, #68: 25 μM
[5] = Table 2, read-out: SARS-CoV2 IC50
[6] = Oligo D, linear reaction range, less than 60% of total substrate consumed at readout, read-out: half maximal inhibitory concentration (IC50)

Which “inhibition of non-specific background of NSP10” value (unbound NSP10) does the source give for `O=C1Cc2ccccc2C(=O)N1O` [Compound 13, 2-Hydroxyisoquinoline-1,3(2H,4H)-dione] here?
The value was “did not inhibit the non-specific background of NSP10”.

What about the “Inhibition of NSP14/10 (Oligo B digestion, gel)” value (NSP14/10 complex; 500 μM versus 100 μM) of the same compound?
The value was “greater at higher (500 μM) versus lower (100 μM) concentrations”.

What about the “Toxicity at IC50” value (A549 cells [1]) of the same compound?
Its value is “Yes”.

What about the “inhibition of NSP14/NSP10 complex exonuclease activity” value ([2]; Oligo E (TexasRed-BHQ2)) of the same compound?
The value was “showed inhibition”.

With `O=c1oc2ccccc2c(O)c1Cc1c(O)c2ccccc2oc1=O` [Compound 23, Dicoumarol, reference compound] as the compound, how does the IC50 [2, 5] read?
The IC50 was over 500 µM.

With `O=C(O)c1cc(Cc2ccc(O)c(C(=O)O)c2)ccc1O` [Compound 30, 5,5′-Methylenedisalicylic acid] as the compound, how does the “Toxicity at IC50” value (A549 cells [1]) read?
Its value is “No”.

For `O=C(NCc1ncc[nH]1)c1c(O)cnc2ccccc12` [Compound 31, 3-Hydroxy-N-[(1H-imidazol-2-yl)methyl]quinoline-4-carboxamide], which “Toxicity at IC50” value (A549 cells [1]) is on record?
The value was “No”.

With `O=C(O)c1cc2cc(-c3ccccc3)ccc2[nH]c1=O` [Compound 53, 2-Oxo-6-phenyl-1H-quinoline-3-carboxylic acid] as the compound, how does the “Toxicity at IC50” value (A549 cells [1]) read?
The value was “no”.

Which results are given for `Oc1ccc(CC2NCCc3cc(O)c(O)cc32)cc1O` (stereo not shown) [Compound 54, Tetrahydropapaveroline]?
Solubility issue [3]: no; NSP14/NSP10 complex inhibitory potential (gel) (NSP14/10 complex): indeed novel NSP14 inhibitors; Toxicity at IC50 (A549 cells [1]): no

Which “Toxicity at IC50” value (A549 cells [1]) does the source give for `CC(C)=CCc1cc(C(=O)/C=C/c2ccc(O)cc2)c(O)cc1O` [Compound 57, Bavachalcone] here?
The value was “yes”.

With `COc1cc(O)c(CC=C(C)C)c(O)c1C(=O)/C=C/c1ccc(O)cc1` [Compound 58, Xanthohumol] as the compound, how does the “Toxicity at IC50” value (A549 cells [1]) read?
Its value is “yes”.

For `O=C(O)c1c(O)c(Cc2ccc(Cl)cc2)nc2c3c(ccc12)CCCC3` [Compound 59, 2-(4-Chlorobenzyl)-3-hydroxy-7,8,9,10-tetrahydrobenzo(H)quinoline-4-carboxylic acid], which “Toxicity at IC50” value (A549 cells [1]) is on record?
Its value is “yes”.

Which Solubility issue [3] does the source give for `Cc1c(S(=O)(=O)[O-])oc2c1C(=O)C(=O)c1c-2ccc2c1CCCC2(C)C.[Na+]` [Compound 60, Tanshinone IIA sulfonate] here?
The Solubility issue was “no”.

And the “Toxicity at IC50” value (A549 cells [1])?
Its value is “no”.

For `O=c1cc(-c2ccc(O)cc2)oc2cc(O)c(O)c(O)c12` [Compound 62, Scutellarein], which “Toxicity at IC50” value (A549 cells [1]) is on record?
Its value is “no”.

Which “Toxicity at IC50” value (A549 cells [1]) does the source give for `CC(C)c1cc(Cc2cc(C(C)C)cc(C(=O)O)c2O)c(O)c(C(=O)O)c1` [Compound 65, 3-[(3-Carboxy-2-hydroxy-5-propan-2-ylphenyl)methyl]-2-hydroxy-5-propan-2-ylbenzoic acid] here?
The value was “no”.

Which “Toxicity at IC50” value (A549 cells [4]) does the source give for `CC(C)=CCOc1ccc(/C=C/C(=O)c2ccc(OCC=C(C)C)cc2OCC(=O)O)cc1` [Compound 68, Sofalcone, reference compound] here?
The value was “Some”.

And the “lowering of the EC50 values of remdesivir” value (HCoV-OC43)?
The value was about 5 fold.

And the “lowering of the EC50 values of remdesivir” value (SARS-CoV2)?
The value was about 5 fold.

What about the “NSP14/NSP10 complex inhibitory potential (gel)” value (NSP14/10 complex) of the same compound?
The value was “indeed novel NSP14 inhibitors”.

What about the IC50 ([2]; read-out: SARS-CoV2 IC50) of the same compound?
The IC50 was 22 ± 6.02 µM.

With `CC(C)=CCc1c2c(c3occ(-c4ccc(O)c(O)c4)c(=O)c3c1O)C=CC(C)(C)O2` [Compound 69, Pomiferin] as the compound, how does the “Toxicity at IC50” value (A549 cells [4]) read?
The value was “Yes”.

What does the source list for `CC(C)=CCc1c(O)cc(O)c(C(=O)/C=C/c2ccc(O)cc2)c1O` [Compound 71, Desmethylxanthohumol]?
Toxicity at IC50 (A549 cells [1]): Yes; Inhibitory activity present [2]: +++/ ++++

For `CC(C)=CCc1c(O)ccc(C(=O)/C=C/c2ccc(O)c(O)c2)c1O` [Compound 72, Corylifol B], which Inhibitory activity present [2] is on record?
Its Inhibitory activity present is “+++/ ++++”.

For `O=C(/C=C/c1ccc(O)cc1)c1c(O)cc(O)cc1O` [Compound 73, Naringenin chalcone], which “Toxicity at IC50” value (A549 cells [1]) is on record?
The value was “Yes”.

Which “Toxicity at IC50” value (A549 cells [1]) does the source give for `CC(C)=CCc1c(O)ccc(C(=O)/C=C/c2ccc(O)cc2O)c1O` [Compound 74, Morachalcone A] here?
The value was “Yes”.

With `CC1(C)CCc2c(O)ccc(C(=O)/C=C/c3ccc(O)cc3)c2O1` [Compound 75, Isodorsmanin A] as the compound, how does the “Toxicity at IC50” value (A549 cells [1]) read?
Its value is “Yes”.

Which “Toxicity at IC50” value (A549 cells [1]) does the source give for `O=C(/C=C/c1ccc(O)c(O)c1)c1ccc(O)c(O)c1O` [Compound 76, Okanin] here?
Its value is “Yes”.

Which results are given for `CC(C)=CCc1c(O)ccc(C(=O)/C=C/c2ccc(O)cc2)c1O` [Compound 77, Isobavachalcone]?
lowering of the EC50 values of remdesivir (HCoV-OC43): ~5 fold; lowering of the EC50 values of remdesivir (SARS-CoV2): ~5 fold; NSP14/NSP10 complex inhibitory potential (gel) (NSP14/10 complex): indeed novel NSP14 inhibitors; Toxicity at IC50 (A549 cells [1]): some; IC50 ([2]; read-out: SARS-CoV2 IC50): 17.4 ± 1.39 µM

Which “Toxicity at IC50” value (A549 cells [1]) does the source give for `Cc1ccc2ccc(C(=O)O)c(O)c2n1` [Compound 78, 2-methyl-8-hydroxyquinoline-7-carboxylic acid] here?
The value was “No”.

Which “Toxicity at IC50” value (A549 cells [1]) does the source give for `O=C(O)c1ccc2ccc(/C=C/c3ccc(O)c(O)c3)nc2c1O` [Compound 79, 2-(3,4-dihydroxystyryl)-8-hydroxyquinoline-7-carboxylic acid] here?
Its value is “No”.

Which “Toxicity at IC50” value (A549 cells [1]) does the source give for `O=C(O)c1ccc2ccc(/C=C/c3cc(Br)c(O)c(Br)c3)nc2c1O` [Compound 88, 2-(3,5-dibromo-4-hydroxystyryl)-8-hydroxyquinoline-7-carboxylic acid] here?
The value was “No”.

Which “Toxicity at IC50” value (A549 cells [1]) does the source give for `O=C(O)c1ccc2ccc(/C=C/c3ccc(F)c(F)c3)nc2c1O` [Compound 89, 2-(3,4-difluorostyryl)-8-hydroxyquinoline-7-carboxylic acid] here?
Its value is “Yes”.

For `O=C(O)c1cc(/C=C/c2ccc3ccc(C(=O)O)c(O)c3n2)ccc1O` [Compound 90, 2-(3-carboxy-4-hydroxystyryl)-8-hydroxyquinoline-7-carboxylic acid], which “Toxicity at IC50” value (A549 cells [1]) is on record?
The value was “No”.

Which “Toxicity at IC50” value (A549 cells [1]) does the source give for `Oc1ccc(/C=C/c2ccc3cccc(O)c3n2)cc1O` [Compound 92, 2-(3,4-dihydroxystyryl)-8-hydroxyquinoline] here?
The value was “Yes”.

Which “Toxicity at IC50” value (A549 cells [1]) does the source give for `O=C(c1ccc(F)c(F)c1)c1ccc2ccc(/C=C/c3ccc(O)c(O)c3)nc2c1O` [Compound 93, 7-(3,4-difluorobenzoyl)-2-(3,4-dihydroxyvinyl)-8-hydroxyquinoline] here?
The value was “Yes”.

With `O=C(O)c1ccc2ccc(CCc3ccc(O)c(O)c3)nc2c1O` [Compound 94, 2-(3,4-dihydroxyphenethyl)-8-hydroxyquinoline-7-carboxylic acid] as the compound, how does the “Toxicity at IC50” value (A549 cells [1]) read?
The value was “No”.

For `O=C(O)c1ccc2nc(/C=C/c3ccc(O)c(O)c3)ccc2c1O` [Compound 99, 2-(3,4-dihydroxystyryl)-5-hydroxyquinoline-6-carboxylic acid], which “Toxicity at IC50” value (A549 cells [1]) is on record?
Its value is “Yes”.

For `O=P(O)(O)c1ccc2ccc(CCc3ccc(O)c(O)c3)nc2c1O` [Compound 100, 2-(3,4-dihydroxyphenethyl)-8-hydroxyquinoline-7-phosphonic acid], which “Toxicity at IC50” value (A549 cells [1]) is on record?
Its value is “No”.

For `O=c1c2[nH]c3ccccc3c2ncn1CCc1ccc(F)cc1` [Compound 105, 3-[2-(4-Fluorophenyl)ethyl]-3,5-dihydro-4H-pyrimido[5,4-b]indol-4-one], which IC50 [2, 5] is on record?
Its IC50 is 217 µM.

Which Solubility issue [3] does the source give for `COc1ccc2nc(O)c(-c3noc(-c4ccc(F)cc4)n3)cc2c1` [Compound 109, 3-(5-(4-Fluorophenyl)-1,2,4-oxadiazol-3-yl)-6-methoxyquinolin-2-ol] here?
The Solubility issue was “No”.

Which results are given for `O=C(NCc1ccc(F)cc1)C1C(=O)N(O)C(=O)c2cc(C(F)(F)F)ccc21` (stereo not shown) [Compound 112, 7-trifluoromethyl-N-(4-fluorobenzyl)-2-hydroxy-1,3-dioxo-4H-isoquinoline-4-carboxamide]?
lowering of the EC50 values of remdesivir (HCoV-OC43): ~5 fold; lowering of the EC50 values of remdesivir (SARS-CoV2): ~5 fold; NSP14/NSP10 complex inhibitory potential (gel) (NSP14/10 complex): indeed novel NSP14 inhibitors

For `O=c1oc2ccccc2c(O)c1Cc1c(O)c2ccccc2oc1=O` [Dicoumarol], which IC50 [2, 6] is on record?
Its IC50 is over 500 µM.

For `CC(C)=CCc1c(O)ccc(C(=O)/C=C/c2ccc(O)cc2)c1O` [Isobavachalcone], which IC50 [2, 6] is on record?
Its IC50 is 16.6 µM.

For `CC(C)=CCc1c2c(c3occ(-c4ccc(O)c(O)c4)c(=O)c3c1O)C=CC(C)(C)O2` [Pomiferin], which IC50 [2, 6] is on record?
Its IC50 is 5.9 µM.

With `CC(C)=CCOc1ccc(/C=C/C(=O)c2ccc(OCC=C(C)C)cc2OCC(=O)O)cc1` [Sofalcone] as the compound, how does the IC50 [2, 6] read?
The IC50 was 28.8 µM.
